According to patent publication US7323433B2, “R-(-)-1-[2-(7-chlorobenzo[b]thiopen-3-yl-methoxy)-2-(2,4-dichlorophenyl)-ethyl]-1H-imidazole” (Ferrer Internacional, S.A., priority 2002, dated 2008):
Values after ≈ are worked out from the molar mass of the structure shown. Like-named read-outs stand apart in the source and are kept apart here.

Tests used:
Format in all cases: cell-based
Malassezia spp = assay: MIC by modified NCCLS M27-A microdilution, Malassezia spp; conditions: 11 strains, geometric mean, MIC = lowest concentration giving 50% inhibition of growth
Method: (§1) Minimal Inhibitory Concentrations (MICs) were determined by using a modification of the microdilution method M27-A recommended by the National Committee for Clinical Laboratory Standards in RPMI-1640 medium (Sigma) supplemented with glucose to a concentration of 2% and adjusted to pH 7.0 with 0.165 M morpholine propanesulfonic (MOPS) acid buffer. Serial twofold dilutions were made in modified RPMI-1640 medium from stock solutions. MICs were defined as the lowest drug concentrations resulting in 50% inhibition of growth compared to that of the growth control. […] The number of strains used in the experiments is given in parenthesis below the name of each microorganism.

Filamentous fungi = assay: MIC by modified NCCLS M27-A microdilution, Filamentous fungi; conditions: 11 strains, geometric mean, MIC = lowest concentration giving 50% inhibition of growth
Method: as §1

Candida spp = assay: MIC by modified NCCLS M27-A microdilution, Candida spp; conditions: 42 strains, geometric mean, MIC = lowest concentration giving 50% inhibition of growth
Method: as §1

Dermatophytes = assay: MIC by modified NCCLS M27-A microdilution, Dermatophytes; conditions: 17 strains, geometric mean, MIC = lowest concentration giving 50% inhibition of growth
Method: as §1

fungi and yeasts = assay: Microbiological activity (MIC) overall, comparison of enantiomers and racemate
Method: as §1

[1] = RPMI-1640 2% glucose pH 7.0, read-out: MIC

**Q.** Clc1ccc(C(Cn2ccnc2)OCc2csc3c(Cl)cccc23)c(Cl)c1 (racemic) [Racemate, 1-[2-(7-chlorobenzo[b]thiophen-3-yl-methoxy)-2-(2,4-dichlorophenyl)-ethyl]-1H-imidazole] was tested. Which MIC (Malassezia spp; [1]) did it give?
**A.** 1.37 µg/mL (≈ 3.13 µM)

**Q.** What about the MIC (Filamentous fungi; [1]) of the same compound?
**A.** 3.11 µg/mL (≈ 7.1 µM)

**Q.** And the MIC (Candida spp; [1])?
**A.** 0.256 µg/mL (≈ 0.585 µM)

**Q.** And the MIC (Dermatophytes; [1])?
**A.** 0.08 µg/mL (≈ 0.183 µM)

**Q.** With Clc1ccc([C@@H](Cn2ccnc2)OCc2csc3c(Cl)cccc23)c(Cl)c1.O=[N+]([O-])O (single isomer, unassigned) [S-(+)enantiomer] as the compound, how does the MIC (Malassezia spp; RPMI-1640 2% glucose pH 7.0) read?
**A.** 10.96 µg/mL

**Q.** And the MIC (Filamentous fungi; RPMI-1640 2% glucose pH 7.0)?
**A.** 16 µg/mL

**Q.** And the “microbiological activity in comparison with R-(−)sertaconazole” value (fungi and yeasts; in words, from Table 1)?
**A.** much less active

**Q.** What about the MIC (Candida spp; RPMI-1640 2% glucose pH 7.0) of the same compound?
**A.** 3.217 µg/mL

**Q.** What about the MIC (Dermatophytes; RPMI-1640 2% glucose pH 7.0) of the same compound?
**A.** 0.17 µg/mL

**Q.** With Clc1ccc([C@H](Cn2ccnc2)OCc2csc3c(Cl)cccc23)c(Cl)c1.O=[N+]([O-])O [R-(−)enantiomer, (R)-(−)-1-[2-(7-chlorobenzo[b]thiophen-3-yl-methoxy)-2-(2,4-dichlorophenyl)-ethyl]-1H-imidazole mononitrate] as the compound, how does the MIC (Malassezia spp; [1]) read?
**A.** 0.64 µg/mL

**Q.** And the MIC (Filamentous fungi; [1])?
**A.** 1.76 µg/mL

**Q.** And the “activity compared with the racemic mixture” value (fungi and yeasts; against both fungi and yeasts, as shown in Table 1)?
**A.** about 2 times

**Q.** What about the MIC (Candida spp; [1]) of the same compound?
**A.** 0.125 µg/mL

**Q.** And the MIC (Dermatophytes; [1])?
**A.** 0.04 µg/mL
